# Measurements as given in article PMC6478789, “A chemical toolbox for the study of bromodomains and epigenetic signaling” (Nature Communications, 2019).
# Like-named read-outs stand apart in the source and are kept apart here.
# What was measured:
# BRD3(2) = BRD3(2) (Homo sapiens, UniProt Q15059); test: BROMOscan ligand-binding assay
# Source text: (§6) BROMOscan is a binding assay based on the well-known KINOMEscan technology. This assay measures the binding of a DNA-tagged bromodomain to an immobilized BRD ligand. If an inhibitor is present, it will compete with the bromodomain binding to the immobilized ligand, resulting in reduction of a quantitative PCR (qPCR) signal in a dose-dependent manner.
# SMARCA4 = SMARCA4 (Homo sapiens, UniProt P51532); test: BROMOscan ligand-binding assay; details: SMARCA4
# Source text: as §6
# TAF1L(2) = biological target: T1, TAF1L(2) (Homo sapiens, UniProt Q8IZX4); test: BROMOscan ligand-binding assay
# T1 sequence (Q8IZX4 1517-1626 limits assumed): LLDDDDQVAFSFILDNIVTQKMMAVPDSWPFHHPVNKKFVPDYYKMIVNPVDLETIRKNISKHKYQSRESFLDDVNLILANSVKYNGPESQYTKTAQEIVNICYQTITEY
# Source text: as §6
# BRD4(1) = BRD4(1) (Homo sapiens, UniProt O60885); test: BROMOscan ligand-binding assay
# Source text: as §6
# BRPF1 = biological target: T2, BRPF1 (Homo sapiens, UniProt P55201); test: BROMOscan ligand-binding assay
# T2 sequence (P55201 628-732 limits assumed): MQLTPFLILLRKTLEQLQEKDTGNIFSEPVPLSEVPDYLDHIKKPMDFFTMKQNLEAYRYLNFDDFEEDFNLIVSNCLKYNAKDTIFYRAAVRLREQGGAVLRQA
# Source text: as §6
# TRIM24(PHD,BRD) = biological target: T3, TRIM24(PHD,BRD) (Homo sapiens, UniProt O15164); test: BROMOscan ligand-binding assay
# T3 sequence (O15164 824-1006 limits assumed): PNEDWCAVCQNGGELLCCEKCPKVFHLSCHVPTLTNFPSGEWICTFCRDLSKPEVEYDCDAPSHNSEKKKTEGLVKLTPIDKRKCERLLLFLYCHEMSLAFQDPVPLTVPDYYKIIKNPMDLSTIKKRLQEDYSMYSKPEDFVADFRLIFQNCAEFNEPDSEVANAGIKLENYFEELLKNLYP
# Source text: as §6
# BRD4(fl) = BRD4(fl) (Homo sapiens, UniProt O60885); test: BROMOscan ligand-binding assay
# Source text: as §6
# SMARCA2(iso.A) = SMARCA2(iso.A) (Homo sapiens, UniProt P51531); test: BROMOscan ligand-binding assay
# Source text: as §6
# FXR1 = FXR1 (Homo sapiens, UniProt P51114); test: Temperature shift assay (non-BRD reader domains); format: binding; details: 10µM compound
# Protocol: (§1) Temperature shift assays have been described by Fedorov et al.[46]. Recombinant protein domains (bromodomain or kinases) at a concentration of 2 μM in 10 mM HEPES, pH 7.5, and 500 mM NaCl were mixed with 10 μM of chemical probes. Temperature-dependent protein unfolding profiles were measured using a Real-Time PCR Mx3005p machine (Stratagene).
# (§2) Wu et al., Supplementary figures and tables 14
# (§3) Supplementary Table 3: Selectivity screening data (non-BRD reader domains):
# (§4) Temperature shift assay data of BRD probes screened against a diver se panel of methyl-lysine
# (§5) reader domains. Compounds were screened a concentration of 10 µM. Shown are temperature
# TDRD3 = TDRD3 (Homo sapiens, UniProt Q9H7E2); test: Temperature shift assay (non-BRD reader domains); format: binding; details: 10µM compound
# Protocol: as §1, §2, §3, §4, §5
# SND1 = biological target: T4, SND1 (Homo sapiens, UniProt Q7KZF4); test: Temperature shift assay (non-BRD reader domains); format: binding; details: 10µM compound
# T4 sequence (Q7KZF4 729-787 limits assumed): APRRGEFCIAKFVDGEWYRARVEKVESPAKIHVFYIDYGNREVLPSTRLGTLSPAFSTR
# Protocol: as §1, §2, §3, §4, §5
# RBBP1 = test: Temperature shift assay (non-BRD reader domains); format: binding; details: 10µM compound
# Protocol: as §1, §2, §3, §4, §5
# UHRF1 = biological target: T5, UHRF1 (Homo sapiens, UniProt Q96T88); test: Temperature shift assay (non-BRD reader domains); format: binding; details: 10µM compound
# T5 sequence (Q96T88 126-285 limits assumed): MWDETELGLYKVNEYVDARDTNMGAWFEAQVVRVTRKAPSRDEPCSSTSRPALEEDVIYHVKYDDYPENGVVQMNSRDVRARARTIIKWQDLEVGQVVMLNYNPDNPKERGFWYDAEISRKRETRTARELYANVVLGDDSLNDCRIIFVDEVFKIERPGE
# Protocol: as §1, §2, §3, §4, §5
# EED = EED (Homo sapiens, UniProt O75530); test: Temperature shift assay (non-BRD reader domains); format: binding; details: 10µM compound
# Protocol: as §1, §2, §3, §4, §5
# BRPF3 = BRPF3 (Homo sapiens, UniProt Q9ULD4); test: Temperature shift assay (non-BRD reader domains); format: binding; details: 10µM compound
# Protocol: as §1, §2, §3, §4, §5
# WDR5 = WDR5 (Homo sapiens, UniProt P61964); test: Temperature shift assay (non-BRD reader domains); format: binding; details: 10µM compound
# Protocol: as §1, §2, §3, §4, §5
# 53BP1 = 53BP1 (Homo sapiens, UniProt Q12888); test: Temperature shift assay (non-BRD reader domains); format: binding; details: 10µM compound
# Protocol: as §1, §2, §3, §4, §5
# [1] = KD (BROMOscan), sheet prints no unit (nM)
# Chain of SMARCA2(iso.A) (P51531 1378-1506 limits assumed): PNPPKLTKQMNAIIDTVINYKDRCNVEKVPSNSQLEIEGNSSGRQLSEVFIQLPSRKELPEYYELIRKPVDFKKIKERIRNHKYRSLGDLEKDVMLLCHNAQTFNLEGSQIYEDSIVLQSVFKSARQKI
# Chain of SMARCA4 (P51532 1453-1564 limits assumed): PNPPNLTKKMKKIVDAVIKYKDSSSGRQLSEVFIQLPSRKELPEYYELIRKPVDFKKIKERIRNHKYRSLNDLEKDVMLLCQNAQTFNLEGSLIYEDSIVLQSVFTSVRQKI
# Chain of BRD3(2) (Q15059 306-415 limits assumed): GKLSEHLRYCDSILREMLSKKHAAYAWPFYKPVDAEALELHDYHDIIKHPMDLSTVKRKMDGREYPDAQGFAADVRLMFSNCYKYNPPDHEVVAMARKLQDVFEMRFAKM
# Chain of FXR1 (P51114 2-132 limits assumed, species assumed): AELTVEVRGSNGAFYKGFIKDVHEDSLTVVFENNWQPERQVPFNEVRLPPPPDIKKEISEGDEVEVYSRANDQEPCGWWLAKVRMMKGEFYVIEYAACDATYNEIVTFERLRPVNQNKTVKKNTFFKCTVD
# Chain of 53BP1 (Q12888 1484-1603 limits assumed, species assumed): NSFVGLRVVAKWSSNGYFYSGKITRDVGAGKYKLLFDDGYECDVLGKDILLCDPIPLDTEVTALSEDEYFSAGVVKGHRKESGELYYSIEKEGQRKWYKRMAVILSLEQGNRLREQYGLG
# Chain of TDRD3 (Q9H7E2 555-615 limits assumed, species assumed): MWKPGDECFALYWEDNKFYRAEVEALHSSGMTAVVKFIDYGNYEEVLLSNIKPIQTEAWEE
# Chain of BRPF3 (Q9ULD4 1076-1159 limits assumed, species assumed): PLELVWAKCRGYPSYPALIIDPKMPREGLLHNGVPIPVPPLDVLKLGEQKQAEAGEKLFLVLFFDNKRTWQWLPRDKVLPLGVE
# Chain of EED (O75530 whole entry, species assumed, the tested form may be a part): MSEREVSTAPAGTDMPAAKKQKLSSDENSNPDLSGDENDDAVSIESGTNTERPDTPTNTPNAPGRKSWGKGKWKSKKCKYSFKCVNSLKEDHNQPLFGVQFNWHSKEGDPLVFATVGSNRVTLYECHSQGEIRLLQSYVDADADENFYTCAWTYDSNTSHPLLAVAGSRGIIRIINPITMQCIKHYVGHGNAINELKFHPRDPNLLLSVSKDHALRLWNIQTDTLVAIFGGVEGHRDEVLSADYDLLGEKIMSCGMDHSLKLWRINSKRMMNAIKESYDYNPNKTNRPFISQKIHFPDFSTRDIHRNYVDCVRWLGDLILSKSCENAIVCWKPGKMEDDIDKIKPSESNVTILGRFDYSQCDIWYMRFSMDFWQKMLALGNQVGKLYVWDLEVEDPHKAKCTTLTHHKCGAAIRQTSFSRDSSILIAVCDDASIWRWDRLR
smiles,measurement,setting,value
COc1cc(C#N)ccc1S(=O)(=O)Nc1ccc2c(c1)cc(C)c(=O)n2C [NI 57],Kd,BRD3(2); BRD3(2),> 50000 nM
same,Kd,SMARCA4,41 µM
same,Kd,TAF1L(2); TAF1L(2),5.5 µM
same,Kd,BRD4(1); BRD4(1),3.3 µM
same,Kd,BRPF1; BRPF1,4 nM
same,Kd,"TRIM24(PHD,BRD); TRIM24(PHD,Bromo.)",5600 nM
same,Kd,"BRD4(fl); BRD4(full-length,short-iso.)",4.9 µM
CCCS(=O)(=O)c1nc(NC2CC2)cc(-c2ccc3c(ccn3C3CC(C)(C)NC(C)(C)C3)c2)n1 [NVS-CECR2-1],Kd,BRD3(2),> 30000 nM
same,Kd,TAF1L(2),9.6 µM
same,Kd,BRD4(1),21 µM
same,Kd,BRPF1,3500 nM
same,Kd,"TRIM24(PHD,BRD)",> 30000 nM
same,Kd,BRD4(fl),13 µM
COc1cc2c(cc1NS(=O)(=O)c1ccc(Br)cc1C)n(C)c(=O)n2C [OF-1],Kd,BRD3(2); BRD3(2),16000 nM
same,Kd,SMARCA4,16 µM
same,Kd,TAF1L(2); TAF1L(2),5.3 µM
same,Kd,"TRIM24(PHD,BRD); TRIM24(PHD,Bromo.)",4500 nM
O=C(C=CN1[C@H]2CC[C@@H]1c1ncnc(NC3CC3)c1C2)c1ccccc1O [PFI-3 D1],Kd,"BRD3(2); BROMOscan, BRD3(2)",> 30000 nM
same,Kd,SMARCA4; BROMOscan,0.046 µM
same,Kd,"TAF1L(2); BROMOscan, TAF1L(2)",> 30 µM
same,Kd,"BRD4(1); BROMOscan, BRD4(1)",27 µM
same,Kd,"BRPF1; BROMOscan, BRPF1",> 30000 nM
same,Kd,"TRIM24(PHD,BRD); BROMOscan, TRIM24(PHD,Bromo.)",> 30000 nM
same,Kd,"BRD4(fl); BROMOscan, BRD4(full-length,short-iso.)",> 30 µM
O=C(C=CN1CC2CC1CN2c1ccccn1)c1ccccc1O (stereo not drawn) [PFI-3],Kd,BRD3(2); [1],> 30000 nM
same,Kd,"BRD3(2); KD, BRD3(2)",> 100000 nM
same,Kd,BRPF1; [1],> 30000 nM
same,Kd,"BRPF1; KD, BRPF1",> 100000 nM
same,Kd,"TRIM24(PHD,BRD); [1]",> 30000 nM
same,Kd,"TRIM24(PHD,BRD); KD, TRIM24(PHD,Bromo.)",> 100000 nM
COc1ccc(CCc2nc3cc(-c4c(C)noc4C)ccc3n2C[C@H](C)N2CCOCC2)cc1Cl [SGC-CBP30],Kd,SMARCA2(iso.A); [1],> 30000 nM
same,Kd,"SMARCA2(iso.A); KD, BROMOscan, SMARCA2(iso.A)",> 100000 nM
same,Kd,"BRD3(2); KD, BROMOscan, BRD3(2)",2300 nM
same,Kd,TAF1L(2),7.1 µM
same,Kd,BRD4(1),1.1 µM
same,Kd,"BRPF1; KD, BROMOscan, BRPF1",2400 nM
same,Kd,"TRIM24(PHD,BRD); KD, BROMOscan, TRIM24(PHD,Bromo.)",6500 nM
same,Kd,BRD4(fl),0.587 µM
O=C(O)c1ccccc1O [Salicylic Acid],Kd,"SMARCA2(iso.A); KD, SMARCA2(iso.A)",950000 nM
same,Kd,SMARCA4; KD,320 µM
same,Kd,TAF1L(2),> 14000 µM
same,Kd,BRD4(1),> 14000 µM
same,Kd,"BRPF1; KD, BRPF1",4.2e+06 nM
same,Kd,"TRIM24(PHD,BRD); KD, TRIM24(PHD,Bromo.)",> 1.4e+07 nM
same,Kd,BRD4(fl),> 14000 µM
CN(C)CCCOc1ccc(-c2cc(NCCCn3cccn3)nc(S(C)(=O)=O)n2)cc1 [TP-238],"Tm (C) 10µM, temperature shift",FXR1,0.4 Kelvin
same,"Tm (C) 10µM, temperature shift",TDRD3,-0.7 Kelvin
same,"Tm (C) 10µM, temperature shift",SND1,-0.5 Kelvin
same,"Tm (C) 10µM, temperature shift",RBBP1,-0.4 Kelvin
same,"Tm (C) 10µM, temperature shift",UHRF1,0.0 Kelvin
same,"Tm (C) 10µM, temperature shift",EED,-0.3 Kelvin
same,"Tm (C) 10µM, temperature shift",BRPF3,0.2 Kelvin
same,"Tm (C) 10µM, temperature shift",WDR5,0.2 Kelvin
same,"Tm (C) 10µM, temperature shift",53BP1,0.4 Kelvin
